From patent US11008620B2, “Methods for treating cancer resistant to ErbB therapeutics” (Dana-Farber Cancer Institute, Inc., priority 2007, dated 2021)

Tests used:
HCC827 cells [1] = assay: crystal violet staining of viable HCC827 cells, gefitinib and HGF; format: cell-based; conditions: 10 days, gefitinib 1 uM, HGF 50, 10 or 2 ng/ml (FIG. 10 bottom)
Description: […] cells were seeded in a 10 cm petri dish and treated with the indicated conditions for 10 days. Gefitnib was used at 1 uM, and HGF was used at 50, 10, or 2 ng/ml. The plates were then stained with crystal violet to visualize viable cells.

HCC827 cells [2] = assay: MTS survival assay of HCC827 cells with HGF in the presence of gefitinib; format: cell-based; conditions: 50 ng/ml of HGF (FIG. 10 top left)
From the text: MET activity was induced by treating HCC827 cells with its ligand, HGF (hepatocyte growth factor).

HCC827 cells [3] = assay: Western blot of AKT phosphorylation in HCC827 treated with gefitinib and HGF; format: cell-based; conditions: gefitinib alone or with HGF, 6 hours (FIG. 10 top right)
[4] = system: ERBB3 and Gab1 association with p85 in HCC827 GR cells; assay: anti-p85 immunoprecipitation in HCC827 GR cells; format: cell-based; conditions: 1 μM each drug, 6 hours (FIG. 2C)
[5] = system: CHO cells co-expressing MET and ERBB3; conditions: PHA-665,752 1 μM
Description: Lysates were immunoprecipitated with anti-p85 antibodies and the immunoprecipitates were probed with anti-phospho-tyrosine, anti-ERBB-3 and anti-p85 antibodies (* indicates ERBB3 on the PTyr blot). In parallel, the lysates were analyzed by Western blotting and probed with the indicated antibodies. […] Lentiviral shRNA constructs containing a scrambled (SC) sequence, ERBB3 specific sequence, a control sequence (CTRL) or GFP were infected into SNU638 cells (Methods). Seventy-two hours following infection, the cells were lysed and probed with indicated antibodies. […] C. […] Growth of SNU-638 cells was assayed by an MTS assay 5 days following infection of shRNA constructs in B. Growth is normalized to the SC shRNA. […] The resulting proteins were lysed and probed with the indicated antibodies. […] The resulting lysates were probed with either ERBB3 or MET.

[6] = system: EGFR mutant HCC827 cells and ERBB2 amplified BT474 cells; assay: p85 immunoprecipitation and Western blot in control cell lines HCC827 and BT474; format: cell-based; conditions: 1 μM, 6 hours (FIG. 3A)
[7] = system: H1993 NSCLC cells, SNU638 and MKN45 gastric cancer cells; assay: p85 immunoprecipitation and Western blot in MET amplified cell lines; conditions: 1 μM, 6 hours (FIG. 3A)
Description: Lysates were immunoprecipitated with anti-p85 antibodies and the immunoprecipitates were probed with anti-phospho-tyrosine, anti-ERBB-3 and anti-p85 antibodies (* indicates ERBB3 on the PTyr blot). In parallel, the lysates were analyzed by Western blotting and probed with the indicated antibodies.
Cells grown under the previously specified conditions were lysed in the following lysis buffer: 20 mM Tris, pH 7.4/150 mM NaCl/1% Nonidet P-40/10% glycerol/1 mM EDTA/1 mM EGTA/5 mM sodium pyrophosphate/50 mM NaF/10 nM (3-glycerophosphate/1 mM sodium vanadate/0.5 mM DTT/4 μg/ml leupeptin/4 μg/ml pepstatin/4 μg/ml apoprotein/1 mM PMSF. After cell lysis, lysates were centrifuged at 16,000×g for 5 min at 4° C. The supernatant was used for subsequent procedures. Western blot analyses were conducted after separation by SDS/PAGE electrophoresis and transfer to nitrocellulose membranes. Immunoblotting was performed according to the antibody manufacturers' recommendations. Antibody binding was detected using an enhanced chemiluminescence system (New England Nuclear Life Science Products Inc.).
Anti-ErbB-3 antibody was obtained from Lab Vision. […] The total Met (C-28) antibody was purchased from Santa Cruz Biotechnology (Santa Cruz, Calif.).

HCC827 GR cells [8] = assay: MTS survival assay, gefitinib-resistant HCC827 GR cells; conditions: HCC827 GR cell lines / GR5; single drugs or combination
Description: This assay, a colorimetric method for determining the number of viable cells, is based on the bioreduction of 3-(4,5-dimethylthiazol-2-yl)-5-(3-carboxymethoxyphenyl)-2-(4-sulfophenyl)-2H-tetrazolium (MTS) by cells to a formazan product that is soluble in cell culture medium, can be detected spectrophotometrically and was performed according to previously established methods (3, 31, 10).
All experimental points were set up in six to twelve wells and all experiments were repeated at least three times. […] The curves were fitted using a non-linear regression model with a sigmoidal dose response.

HCC827 GR cells [9] = assay: Western blot of EGFR/ERBB3/PI3K/Akt signaling in HCC827 GR cells; format: cell-based; conditions: 1 μM each drug, 6 hours (FIG. 2B)

HGF: hepatocyte growth factor, ligand of MET
viable cells (crystal violet) (HCC827 cells [1]): increases with increased concentrations
survival in the presence of gefitinib (MTS) (HCC827 cells [2]): markedly improved survival
AKT phosphorylation (HCC827 cells [3]): at least partially reversed

Cc1[nH]c(/C=C2\C(=O)Nc3ccc(S(=O)(=O)Cc4c(Cl)cccc4Cl)cc32)c(C)c1C(=O)N1CCC[C@@H]1CN1CCCC1 [PHA-665,752]
co-precipitation of ERBB3 and Gab1 with p85 [4]: blocks Gab-1 association with p85
ERBB3 phosphorylation ([5]; CHO co-expressing MET and ERBB3, gefitinib 3 mM (so in the source), lapatinib 3 μM, PP2 10 μM, 6 hours (FIG. 3D)): blocked
p85 co-precipitation with ERBB3 ([5]; CHO transfected with MET and ERBB3, gefitinib 3 μM, lapatinib 3 μM (FIG. 3E)): inhibited
PI3K signaling [6]: has no effect on PI3K signaling
ERBB3 and Akt phosphorylation [7]: only inhibited
ERBB3 association with p85 [7]: disrupted
growth of HCC827 GR cells under drug (MTS) (HCC827 GR cells [8]): resistant
ERBB3 and Akt phosphorylation (HCC827 GR cells [9]): minimal effect on P-Akt levels
ERBB3 and Akt phosphorylation (HCC827 GR cells [9]; listed as PHA-665752): no significant effect on p-ERBB3 or p-AKT

CC#CC(=O)Nc1ccc2ncnc(Nc3cccc(Br)c3)c2c1 [CL-387,785]
growth of HCC827 GR cells under drug (MTS) (HCC827 GR cells [8]): did not suppress the growth
